From ChEMBL document CHEMBL5365491, “Synthesis and anti-tumor activities in human leukemia-derived cells of polyenylpyrroles with a methyl group at the conjugated polyene terminus” (Bioorg Med Chem Lett, 2023)

What was measured:
Type in all cases: functional, cell-based
Raji [1] = test: Growth inhibition of human Raji cells measured after 72 hrs by CCK8 assay
THP-1 [2] = test: Growth inhibition of human THP-1 cells measured after 72 hrs by CCK8 assay; conditions: THP-1, 72 h
CCRF-CEM [3] = test: Antitumor activity against human CCRF-CEM cells assessed as cell killing activity
TF-1 [4] = test: Growth inhibition of human TF-1 cells measured after 72 hrs by CCK8 assay; conditions: TF-1, 72 h
K562 [5] = test: Growth inhibition of human K562 cells measured after 72 hrs by CCK8 assay; conditions: K562, 72 h
THP-1 [6] = test: Antitumor activity against human THP-1 cells assessed as inhibition in cell killing activity
TF-1 [7] = test: Antitumor activity against human TF-1 cells assessed as inhibition in cell killing activity
CCRF-CEM [8] = test: Growth inhibition of human CCRF-CEM cells measured after 72 hrs by CCK8 assay
K562 [9] = test: Antitumor activity against human K562 cells assessed as inhibition in cell killing activity
Raji [10] = test: Antitumor activity against human Raji cells assessed as cell killing activity

IC50 (Raji [1]) [µM] | SMILES | IC50 (CCRF-CEM [3]; read-out: pIC50 (converted)) [nM] | IC50 (THP-1 [6]) [nM] | IC50 (TF-1 [7]) [nM] | IC50 (K562 [9]) [nM] | IC50 (Raji [10]) [µM] | IC50 (CCRF-CEM [3]; read-out: IC50) [nM] | also measured
10 | CCOC(=O)/C=C/C=C/C=C/C=C/c1[nH]ccc1Cl | 251 |  |  |  |  |  | IC50 (THP-1 [2]): 1200 nM; IC50 (TF-1 [4]): 230 nM; IC50 (K562 [5]): > 10 µM
 | CCOC(=O)/C=C/C=C/C=C/C=C/c1ccc[nH]1 | 1260 | 770 | 250 |  |  |  | 
10 | CCOC(=O)/C=C/C=C/C=C/C=C/c1cccn1C | > 10000 |  |  |  |  |  | IC50 (CCRF-CEM [8]): 10 µM
 | CCOC(=O)/C(C)=C/C=C/C=C/C=C/c1ccc[nH]1 | 79.4 | 98 | 92 | 280 | 1.6 | 90 | 
 | CCOC(=O)/C(C)=C/C=C/c1[nH]ccc1Cl | 7940 |  |  |  | > 10 | 8400 | 
 | CCOC(=O)/C(C)=C/C=C/C=C/C=C/c1[nH]ccc1Cl | 63.1 | 150 | 37 | 1600 | > 10 | 63 | 
 | CCOC(=O)/C(C)=C/C=C/C=C/c1[nH]ccc1Cl | 251 |  |  |  | > 10 | 230 | 
 | CCOC(=O)/C(C)=C/C=C/C=C/C=C/c1cccn1C | > 10000 |  |  |  | > 10 | > 10000 | 
 | COc1cc(/C=C/C=C/C=C/C=C/c2[nH]ccc2Cl)oc(=O)c1 [AUXARCONJUGATIN B] | 501 | 1300 | 440 | 4900 |  |  | 

SMILES | IC50 (Raji [1]) [µM] | IC50 (CCRF-CEM [3]; read-out: pIC50 (converted)) [nM] | IC50 (THP-1 [6]) [nM] | IC50 (TF-1 [7]) [nM] | IC50 (K562 [9]) [nM] | IC50 (Raji [10]) [µM] | IC50 (CCRF-CEM [3]; read-out: IC50) [nM] | also measured
COc1cc(\C(C)=C/C=C/C=C/C=C/c2[nH]ccc2Cl)oc(=O)c1C | 10 | 1580 |  |  |  |  |  | 
